Reference: publication PMC11505038, “Kalata B1 Enhances Temozolomide Toxicity to Glioblastoma Cells” (Biomedicines, 2024)
Read-outs that look alike come from different tables or passages of the source.

Legend:
[1] = tested on: U-87 MG cells; experiment: Phase contrast microscopy of U-87 MG cultures; type: cell-based, human; settings: 72 h, 150 µM TMZ alone or 0.5 µM synthetic Kalata B1 alone, 20× phase contrast
[2] = tested on: TMZ-resistant cell line T-98G; settings: ref Lee 31, read-out: Range of TMZ IC50 values summarized in the literature; cited from earlier work
Text: Symptoms of GBM include seizures, headaches, nausea, and memory loss, and the side effects of TMZ can not only intensify headaches and nausea but also include diarrhea, constipation, loss of appetite, and sores in the mouth and throat. TMZ is an oral DNA alkylating agent that induces cell cycle arrest at G2/M, and its cytotoxicity is mediated by the addition of methyl groups at N^7 and O^6 sites on guanines and the […] in genomic DNA. A thymine instead of a cytosine is inserted during the alkylation of the O^6 site on guanine, which can cause cell death during DNA replication. ...

[3] = tested on: SH-SY5Y human neuroblastoma cells; settings: MTT, 72 h, previously published data; cited from earlier work
Description: (§1) Table 4 Toxicity and IC50 values of five cyclotides and TMZ in SH-SY5Y, U-87 MG, and T-98G cell cultures. | column: IC50 (μM) ± S.D. || Figure 5 Effect of natural and synthetic Kalata B1 on cell viability in SH-SY5Y, U-87MG, and T-98G cells cultures. The IC50 values for the cyclotides were determined using MTT assay after incubation with cells at increasing concentrations (0.1, 1, 5, and 10 μM) as compared to the control. Panel (A): SH-SY5Y and U-87 MG cells, and panel (B) T-98G and U-87 MG cells. Cultures (6000 cells per well in a 96-well plate), were treated with the cyclotide indicated, for 72 h, then MTT measured. Cell viability was calculated as a percentage of control cultures. IC50 values were calculated using the Best ... || To evaluate the cytotoxicity of plant-derived Kalata B1 and synthetic Kalata B1, MTT assays were performed with T-98G, U-87 MG, and SH-SY5Y cell cultures.

[4] = tested on: U-87 MG human glioblastoma cells; settings: MTT, 72 h, previously published data; cited from earlier work
Description: as §1, with “S.D. || The IC50 values of natural and synthetic cyclotides, as well as TMZ, are provided in Table 4. […] The IC50 values were calculated using nonlinear regression analysis with dose-dependent inhibition and an inhibitor vs. no ...” for “S.D.”, “(+ 4 further places)” for “To evaluate the cytotoxicity of plant-derived Kalata B1 and synthetic Kalata B1, MTT assays were performed with T-98G, U-87 MG, and SH-SY5Y cell cultures.”

[5] = tested on: U-87 MG human glioblastoma cells; experiment: cells
Description: (§2) SH-SY5Y human neuroblastoma cells (population doubling (PD) 20−24), T-98G, and U-87 MG human glioblastoma cells were removed from cryogenic storage, thawed rapidly in a water bath (37 °C) and reconstituted in 75 cm^2 flasks. For SH-SY5Y, the following media were used: Dulbecco’s modified Eagle’s medium/Nutrient F12 Ham (Sigma-Aldrich, Cat. No. D8437) containing 10% heat-inactivated fetal bovine serum, 4 mM L-glutamine, 100 U/mL penicillin, and 100 μg/mL streptomycin. For U-87 MG and T-98G Eagle’s minimal essential medium (ATCC: The Global Bioresource Center, Cat. No. ATCC 30-2003), containing 10% heat-inactivated fetal bovine serum, 4 mM L-glutamine, 100 U/mL penicillin, and 100 μg/mL streptomycin were used.
(§3) Cells were incubated at 37 °C in a humidified atmosphere of 5% CO2 and 95% air until recovered and ready for passaging (approximately 4 days). At between 80% and 90% confluence, the cells were trypsinized with warm (37 °C) sterile 0.5% Trypsin-EDTA (Thermo Fisher, Cat. No. 15400054) and passaged into 175 cm^2 flasks, where they were left to multiply until they reached 80−90% confluence. To plate cells: cultures were trypsinized, resuspended in 20 mL sterile PBS, counted using a cell counter (Olympus cell counter model R1), and plated in 96-well plates at an optimal density of 6000 cells/well in the designated culture media. The cells were left to adhere overnight before treatment the following day, when the culture medium was removed and replaced with the treatment medium. All incubations were conducted in triplicate wells and repeated at least three times (n = 3).
(§4) To calculate TMZ IC50 values in each cell line, TMZ was dissolved in DMSO at a stock concentration of 103 mM, which was then diluted into culture medium on the day of use, with the DMSO final concentration always less than 0.1%. The following concentrations of TMZ were used in the experiments: 0.5, 5, 50, 500, 2500, 5000 μM. The media were sterilized for each treatment media with a 0.22 μm filter before they were added to cell cultures. To determine the IC50 values for each cyclotide in each cell type, cyclotides were dissolved into 10% DMSO and then dilutions used to screen cyclotides with a final DMSO concentration of less than 0.1% The following concentrations of cyclotides were used: 0.1, 1, 5, 10 μM. For co-exposure experiments, a simultaneous exposure of cyclotide and TMZ at each respective dose was added to cell cultures (100 μL final volume per well).
(§5) In accordance with the methods developed by Mosmann and colleagues, the MTT assay was conducted using the Roche cell proliferation kit (Cat. No. 11465007001). Briefly, cells that are active can cleave MTT. The MTT is originally a yellow tetrazolium salt that undergoes a colorimetric change to purple formazan crystals, and the change in absorbance can be measured as an indicator of cell viability/proliferation. For these experiments, cells were plated into 96-well flat-bottom plates, as described in the cell culture above. […] To align with our previous work, experiments were conducted with a 72 h time frame for cytotoxicity evaluation.
(§6) After a 72 h incubation period, plates were removed from the incubator and 10 µL of MTT was added to each well. The plates were returned to the incubator for an additional 4 h, after which 100 µL of a solubilization solution was added to each well. The plates were returned to incubation overnight, and the next day absorbances were read at 570 nm on a Molecular Devices FlexStation 3 using SoftMax Pro Microplate Data Acquisition and Analysis Software (version 7.0.2).

[6] = tested on: T-98G human glioblastoma cells; experiment: cells; settings: Homo sapiens, T98G, 72 h, read-out: IC50 (μM) ± S.D.
Description: as §2, §3, §4, §5, §6

Q: With `Cn1nnc2c(C(N)=O)ncn2c1=O` [TMZ, temozolomide] as the compound, how does the “Morphological changes versus control cultures, single agent” value [1] read?
A: little differences

Q: What about the IC50 [2] of the same compound?
A: 0.25 to 1.58 mM

Q: And the IC50 [3]?
A: 393 ± 4.5 µM

Q: What about the IC50 [4] of the same compound?
A: 2898 ± 6 µM

Q: And the “Cell death in MTT cell viability assay” value [5]?
A: less than 15%

Q: What about the IC50 ([5]; Homo sapiens, U-87 MG, 72 h, read-out: IC50 (μM) ± S.D.) of the same compound?
A: 1617 ± 5.56 µM

Q: What about the IC50 [6] of the same compound?
A: 1160 ± 5.31 µM
